Experimental data published in US20190022198A1, “Individualized Immunomodulation Therapy for Neurodegenerative Disorders, CNS Injury and Age-Related Dementia” (Yeda Research and Development Co. Ltd., priority 2012, published 2019).

Tests used:
[1] = tested on: WT mice; assay type: in vivo, mouse
[2] = tested on: WT, mSOD and 5XFAD mice; assay: Active immunization with MOG and monitoring Tregs and Th1 cells in the blood (Example 19); assay type: in vivo, mouse
Experimental: 200 μg of MOG35-55 (GL Biochem Ltd., Shanghai) are emulsified in 200 μl […] Freund's adjuvant (IFA) containing 0.5 mg/ml M. tuberculosis (strain H37Ra; BD Diagnostics), and 200 μl is injected subcutaneously to three groups of mice: WT, mSOD and 5XFAD. Control mice for each group are injected subcutaneously with PBS. At days 7, 14 and 28 post immunization, the mice are anesthetized, blood is collected into heparin containing tubes and […] of each sample are treated with ACK lysing buffer (Life Technologies) to remove erythrocytes. For intracellular staining of IFN-γ (corresponding to Th1 cells) the cells are incubated with PMA (10 ng/ml; Sigma-Aldrich) and ionomycin (250 ng/ml; Sigma-Aldrich) for 6 h, and Brefeldin-A ([…]; Sigma-Aldrich) was added for the last 4 h. Intracellular labeling is done with BD Cytofix/Cytoperm Plus Fixation/Permeabilization kit (cat. no. 555028) according to the manufacturer's protocol. For intracellular staining of Foxp3^+ T regulatory cells (Tregs), the cells are stained according to manufacturer's protocol (Mouse Regulatory T Cell Staining Kit, eBioscience, cat. No. 88-8111-40). […] Flow cytometry analysis is performed on each sample using a BD Biosciences LSRII flow cytometer, and the acquired data is analyzed using FlowJo software (Tree star). The ratio between Tregs and Th1 cells is calculated for each sample.

[3] = tested on: mSOD1 mice; assay: MOG immunization of mSOD1 mice: EAE symptoms, CP trafficking molecules, leukocytes in CSF and spinal cord, survival; assay type: in vivo, mouse
[4] = tested on: CP epithelial cells; assay: Primary culture of choroid plexus cells treated with cytokines, mRNA by real-time qPCR; assay type: cell-based, mouse; conditions: TNF-α 100 ng/ml
Experimental: Mice were perfused from the left ventricle of the heart with PBS, and their CPs were removed under a dissecting microscope (Stemi DV4; Zeiss) in PBS into tubes containing 0.25% trypsin, and kept on ice. The tubes were shaken for 20 minutes at 37° C. and the tissue was dissociated by pipetting. The cell suspension was washed in culture medium for epithelial cells (DMEM/HAM's F12 (Invitrogen Corp)) supplemented with 10% FCS (Sigma-Aldrich), 1 mM 1-glutamine, 1 mM sodium pyruvate, 100 U/ml penicillin, […] streptomycin, 5 μg/ml Insulin, 20 μM Ara-C, 5 ng/ml sodium selenite, 10 ng/ml EGF, and cultured (˜250,000 cells/well) at 37° C., 5% CO2 in 24-well plates (Corning Incorporated) coated with poly-L-lysine (PLL; Sigma-Aldrich). After 24 hours, the medium was changed, and the cells were either left untreated, or treated with the indicated cytokines (all purchased from PeproTech): IFN-γ, IL-4, IL-10, IL-17A, GM-CSF, IL-6, IL-1β or TNF-α or their combinations for 24 h. Cell viability was quantified by Trypan blue staining after detachment of the cells with 0.25% trypsin for 10 minutes at 37° C. Neutralizing antibodies to TNF-R1 or TNF-R2 ([…], BioLegend) were added 1 h prior to the addition of TNF-α (100 ng/ml). RNA was isolated using the ZR RNA microprep kit (Zymo Research) according to the manufacturer's protocol.
Total RNA of the hippocampus was extracted with TRI reagent (MRC, Cincinnati, Ohio) and was purified from the lysates and spinal cord using the RNeasy kit (Qiagen, Hilden, Germany). Total RNA of the choroid plexus was extracted using the RNA MicroPrep kit (Zymo Research). mRNA (1 μg) was converted to cDNA using High Capacity cDNA Reverse Transcription Kit (Applied Biosystems). The expression of specific mRNAs was assayed using fluorescence based real-time quantitative PCR (qPCR). qPCR reactions were performed using Power SYBR Green PCR Master Mix (Applied Biosystems). Quantification reactions were performed in triplicates for each sample using the standard curve method. Glyceraldehyde 3-phosphate dehydrogenase (GAPDH), Peptidylprolyl isomerase A (PPIA), and hypoxanthine guanine phosphoribosyltransferase (HPRT) were chosen as reference genes according to their stability in the target tissue. The amplification cycles were 95° C. for 5 sec, 60° C. for 20 sec, and 72° C. for 15 sec. At the end of the assay, a melting curve was constructed to evaluate the specificity of the reaction. For some genes, the cDNA was pre-amplified in 14 PCR cycles with non-random PCR primers, thus increasing the sensitivity of the subsequent real-time PCR analysis (PreAmp Master Mix Kit, Applied Biosystems). For these genes, expression was determined using TaqMan Real-Time PCR, according to manufacturer's instructions (Applied Biosystems). All quantitative real-time PCR reactions were performed and analyzed using the 7500 Real-Time PCR System (Applied Biosystems). The following TaqMan probes were used: Mm02342430_g1 (ppia), Mm00446968_m1 (hprt), Mm00445260_m1 (il-4), Mm01168134_m1 (ifn-γ), Mm00441238_m1 (ccl11), Mm00475988_m1 (arg-1). In addition, the following primers were used: […]

[5] = tested on: cultured CP cells; assay: Immunocytochemistry of cultured CP cells treated with cytokines; assay type: cell-based, mouse; conditions: cultured cells following TNF-α treatment (data not shown)
Experimental: For whole mount staining of the choroid plexus, isolated tissues were fixed with 2.5% paraformaldehyde (PFA) for several hours, and subsequently transferred to PBS containing 0.05% sodium azide. Prior to staining, the dissected tissues were washed and blocked (20% horse serum, 0.3% Triton X-100, and PBS) for 1 h at room temperature with shaking. Whole mount staining with primary (in PBS containing 2% horse serum and 0.3% Triton X-100) and secondary antibodies (in PBS), was performed for 1h at room temperature, with shaking. Each step was followed by three washes in PBS. The tissues were mounted onto slides, using Immu-mount (9990402, from Thermo), and sealed with cover-slips. For staining of sectioned brains, two different tissue preparation protocols (paraffin embedded and microtomed frozen sections) were applied, as previously described (Ziv Y et al (2006b)). For immunocytochemistry, CP cells were isolated as described above and were grown on PLL coated cover slips for 7 days, replacing the medium every 3 days. Cytokines were added for the last 3 days of culture. Following 7 days of culture, the wells were washed with PBS and the cells were fixed either with 2.5% paraformaldehyde for 30 min or methanol-acetone (1:1) for 10 min at −20° C., following by 2 washing steps with PBS. For CCL11 staining, cells were treated with Brefeldin-A 2 hours prior to fixation in order to arrest protein secretion. The cover slips of the cultured CP cells were incubated with the indicated antibodies and mounted with Glycerol Vinyl Alcohol (GVA) mounting solution (Invitrogen). The following primary antibodies were used: rat anti-CD3 (Abcam); rat anti-ICAM-1 (1:100; Abcam), chicken anti-vimentin (1:500, Millipore), rabbit anti-Iba1 (1:300; Wako), goat anti-IL-10 (1:20; R&D), mouse anti-MHC-II (Abcam); mouse anti-Arginase-1 (BD Biosciences); mouse anti-Cytokeratin (Covance); rat anti-CCL11 (R&D Systems); rabbit anti-ZO-1 (Invitrogen); and rabbit anti-Claudin-1 (Invitrogen). Secondary antibodies included: Cy2/Cy3-conjugated donkey anti-rat, mouse or rabbit antibody and Cy3 conjugated donkey anti-mouse, goat, rat, chicken or rabbit (1:200; all from Jackson Immuno Research). The slides were exposed to Hoechst stain (1:2000; Invitrogen) for 1 min. Two negative controls were routinely used in immunostaining procedures, staining with isotype control antibody followed by secondary antibody, and staining with secondary antibody alone. For morphological quantification, average cross-sectional area of epithelial cells was measured following Nissl staining. Cell borders (20-25 cells per picture) were marked and the area was quantified using Image-Pro Plus software in a blinded fashion.

[6] = tested on: CP cells; assay: Transepithelial migration assay of CD115+ monocytes across CP cells towards CCL2; assay type: cell-based, mouse; conditions: TNF-α in combination with IFN-γ (data not shown)
Experimental: For transepithelial migration assay, CP cells were isolated as above and plated on 5-μm pore size, 6.5 mm diameter polycarbonate filters in 24-well Transwell chambers (Costar, Corning) and grown for 7 days. The medium of the upper chamber was then replaced with 100 μl of freshly isolated CD115^+ monocytes (1.5×10^6 cells/ml in RPMI 1640 supplemented with 0.5% BSA) and the inserts were transferred to new wells containing RPMI 1640 supplemented with 0.5% BSA and 100 ng/ml CCL2 (PeproTech). The Transwells were then incubated at 37° C., 5% CO2. After 24 h the migrating cells at the lower chamber were removed using cell scraper and CD11b^+ cells were quantified by flow cytometry.
CD115^+ monocytes were isolated as previously reported (Shechter et al., 2009). Briefly, BM cells were harvested from the femur and tibiae of naïve mice, and enriched for mononuclear cells on a Ficoll density gradient. The CD115^+ BM monocyte population was isolated by MACS enrichment using biotinylated anti-CD115 antibodies and streptavidin-coupled magnetic beads (Miltenyi Biotec) according to the manufacturer's protocols. Monocyte purity was checked by flow cytometry based on CD11b reactivity and was 90%.

MOG35-55 (MEVGWYRSPFSRVVHLYRNGK; emulsified in adjuvant) [emulsified in incomplete Freund's adjuvant containing 0.5 mg/ml M. tuberculosis]
infiltrating T cells in the CSF ([1]; 14 days post immunization, relative to naïve or OVA-immunized mice): increase of infiltrating T cells | expression of ICAM-1 by the CP epithelium ([1]; mouse, in vivo): induced the expression of ICAM-1 | ratio of Tregs to Th1 cells in blood ([2]; 7 or 14 days following immunization, versus control group): lower | ratio of Tregs to Th1 cells in blood ([2]; 28 days following immunization, relative to 7 or 14 days): increase | total leukocyte numbers, including T cells and CD4+ T cells, in the CSF ([3]; 14 days post immunization): increase in total leukocyte numbers | expression of trafficking molecules (ICAM-1, CCL5, CXCL9, CXCL10) in the CP ([3]; 14 days post immunization, compared to non-immunized mice): significant increase in the expression of trafficking molecules | CD4+ T cell numbers in the spinal cord parenchyma ([3]; 28 days post immunization): remained elevated | local expression of IL-10 in the spinal cord ([3]; 28 days post immunization): increased local expression of IL-10 | spatial distribution of infiltrating T cells ([3]; 28 days post immunization, immunized mSOD1 mice (data not shown)): T cells were found in the gray matter of the spinal cord ventral horn | lifespan compared to PBS injected mice ([3]; average survival age and Kaplan-Meier curves, logrank p=0.024): significantly longer lifespan | Foxp3+ Tregs in the CSF ([3]; day 28 post immunization): significant elevation of Tregs | Foxp3+ Tregs in the spinal cord parenchyma ([3]; day 28 post immunization): significant elevation of Tregs | mice still alive at the age of 154 days ([3]; immunized mSOD1 mice): 90% | average survival ([3]; immunized mSOD1 mice, n=10 per group): 159.5 ± 2.2 days | increased average survival ([3]; immunized versus untreated mSOD1 mice): 15 days | CD4+ T cells in the spinal cord parenchyma ([3]; mouse, in vivo): increased infiltration of CD4^+ T cells | expression of TGF-β1 in the spinal cord parenchyma ([3]; mouse, in vivo): elevated

TNF-α
expression of IFN-γ-receptor (IFN-γR) mRNA ([4]; CP epithelial cells, 24 h, IL-1β 100 ng/ml, IL-6 10 ng/ml): elevated the expression of IFN-γ-receptor | MADCAM-1 expression ([4]; cultured CP cells, 24 hours, IFN-γ independent): upregulated | IFN-γR immunostaining [5]: elevation of IFN-γR | monocyte trafficking through the CP towards CCL2 [6]: stimulated the CP to mediate monocyte trafficking towards CCL2
